Laboratory results as given in PubChem BioAssay AID330 (DTP/NCI, 2004).
“And” between values parts separate entries of the source, which are not always exact repeats. Identical values can stand only once. Inconclusive results and toxic doses are left out. The calls were made as follows: active = survival T/C of 150% or more; inactive = T/C below 125% in these data.

Test system: P388 leukemia ip, CD2F1 mice, survival T/C
Assay: NCI In Vivo Anticancer Drug Screen. Data for tumor model P388 Leukemia (intraperitoneal) in CD2F1 (CDF1) mice
Settings: endpoint: median survival time, higher = longer survival
In short: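 Mice carrying the transplanted tumor received test compound or vehicle. Survival was recorded in each group, and the value is the treated-group measurement divided by that of the vehicle-treated control group.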

[1] = dose: 12.5 mg/kg/injection, schedule: Q01DX009 (ip), vehicle: saline with Tween-80
[2] = dose: 50.0 mg/kg/injection, schedule: Q01DX009 (ip), vehicle: saline with Tween-80
[3] = dose: 100.0 mg/kg/injection, schedule: Q01DX009 (ip), vehicle: saline with Tween-80
[4] = dose: 200.0 mg/kg/injection, schedule: Q01DX009 (ip), vehicle: saline with Tween-80
[5] = dose: 50.0 mg/kg/injection, schedule: Q01DX005 (ip), vehicle: saline with Tween-80
[6] = dose: 100.0 mg/kg/injection, schedule: Q01DX005 (ip), vehicle: saline with Tween-80
[7] = dose: 60.0 mg/kg/injection, schedule: Q01DX005 (ip), vehicle: saline with Tween-80
[8] = dose: 120.0 mg/kg/injection, schedule: Q01DX005 (ip), vehicle: saline with Tween-80
[9] = dose: 240.0 mg/kg/injection, schedule: Q01DX005 (ip), vehicle: saline with Tween-80
[10] = dose: 100.0 mg/kg/injection, schedule: Q04DX002 (ip), vehicle: saline with Tween-80
[11] = dose: 60.0 mg/kg/injection, schedule: Q01DX005 (ip), vehicle: Klucel (hydroxypropylcellulose) (HPC)
[12] = dose: 120.0 mg/kg/injection, schedule: Q01DX005 (ip), vehicle: Klucel (hydroxypropylcellulose) (HPC)
[13] = dose: 240.0 mg/kg/injection, schedule: Q01DX005 (ip), vehicle: Klucel (hydroxypropylcellulose) (HPC)
[14] = dose: 200.0 mg/kg/injection, schedule: Q01DX005 (ip), vehicle: saline with Tween-80
[15] = dose: 50.0 mg/kg/injection, schedule: Q01DX009 (ip), vehicle: Klucel (hydroxypropylcellulose) (HPC)
[16] = dose: 100.0 mg/kg/injection, schedule: Q01DX009 (ip), vehicle: Klucel (hydroxypropylcellulose) (HPC)
[17] = dose: 25.0 mg/kg/injection, schedule: Q01DX009 (ip), vehicle: Klucel (hydroxypropylcellulose) (HPC)
[18] = dose: 50.0 mg/kg/injection, schedule: Q01DX009 (ip), vehicle: saline
[19] = dose: 100.0 mg/kg/injection, schedule: Q01DX009 (ip), vehicle: saline
[20] = dose: 200.0 mg/kg/injection, schedule: Q01DX009 (ip), vehicle: saline
[21] = dose: 200.0 mg/kg/injection, schedule: Q04DX002 (ip), vehicle: saline with Tween-80

Measured: T/C

CN(C)CCO[Si](C)(c1ccccc1)c1ccc(F)cc1 (configuration not stated)
inactive: [1] 100 % of control | dose: 25.0 mg/kg/injection, schedule: Q01DX009 (ip), vehicle: saline with Tween-80 101 % of control | [2] 98 % of control and 101 % of control | [3] 99 % of control | [4] 114 % of control

CCCCCC(CN(C)C)C(=O)/C=C/c1ccc(C)cc1 (configuration not stated)
inactive: dose: 12.5 mg/kg/injection, schedule: Q01DX005 (ip), vehicle: saline with Tween-80 98 % of control | dose: 25.0 mg/kg/injection, schedule: Q01DX005 (ip), vehicle: saline with Tween-80 100 % of control | [5] 106 % of control and 97 % of control | [6] 98 % of control

COc1cc(C2c3cc4c(cc3OC3(O)COC(=O)C23)OCO4)cc(OC)c1OC (configuration not stated)
inactive: [7] 88 % of control | [8] 91 % of control | [9] 86 % of control

Cc1cc(C)n(-c2ccc(-c3cc(=O)c4ccccc4o3)cc2)n1
inactive: [5] 92 % of control | [6] 90 % of control

C1OCN2CSCC12 (configuration not stated)
inactive: [10] 116 % of control

O=c1[nH][nH]c2c1SCc1ccccc1-2
inactive: [2] 110 % of control | [3] 117 % of control | [4] 86 % of control

COc1ccc(C2c3cc4c(cc3OC(C)(O)C2C)OCO4)cc1 (configuration not stated)
inactive: [11] 95 % of control | [12] 98 % of control | [13] 93 % of control

c1ccc(CN2CC[N+](Cc3ccccc3)=C2C2=[N+](Cc3ccccc3)CCN2Cc2ccccc2)cc1
inactive: dose: 12.5 mg/kg/injection, schedule: Q01DX009 (ip), vehicle: suspension in saline 89 % of control | dose: 25.0 mg/kg/injection, schedule: Q01DX009 (ip), vehicle: suspension in saline 96 % of control | dose: 50.0 mg/kg/injection, schedule: Q01DX009 (ip), vehicle: suspension in saline 91 % of control

CCOc1cccc(C=NCCS)c1O
inactive: [5] 92 % of control | [6] 90 % of control | [14] 86 % of control

COc1cccc(C2CC(C)(O)Oc3cc4c(cc32)OCO4)c1O (configuration not stated)
inactive: [11] 100 % of control | [12] 100 % of control | [13] 92 % of control

Cc1cc(N=Cc2cccs2)cc(Cl)c1O
inactive: dose: 100.0 mg/kg/injection, schedule: Q04DX003 (ip), vehicle: saline 101 % of control | dose: 200.0 mg/kg/injection, schedule: Q04DX003 (ip), vehicle: saline 99 % of control | dose: 400.0 mg/kg/injection, schedule: Q04DX003 (ip), vehicle: saline 98 % of control

COc1cc2oc3c(c(=O)c2c(O)c1/C=C/C(C)C)C(C=C(C)C)Oc1cc(O)ccc1-3 (configuration not stated)
inactive: [15] 124 % of control | [16] 115 % of control | dose: 200.0 mg/kg/injection, schedule: Q01DX009 (ip), vehicle: Klucel (hydroxypropylcellulose) (HPC) 114 % of control

C=CCn1c(=O)n(CC)c(=O)c2[nH]c(C(F)(F)F)nc21
inactive: [17] 99 % of control | [15] 102 % of control | [16] 112 % of control

CC(C)(C)C1C/C(=C2\COC(=O)C2=O)NN1c1ccccc1 (configuration not stated)
inactive: [18] 92 % of control | [19] 91 % of control | [20] 91 % of control

O=C(O)C1CCCCC12OCCO2 (configuration not stated)
inactive: dose: 100.0 mg/kg/injection, schedule: Q04DX002 (ip), vehicle: saline 102 % of control | dose: 200.0 mg/kg/injection, schedule: Q04DX002 (ip), vehicle: saline 106 % of control | dose: 400.0 mg/kg/injection, schedule: Q04DX002 (ip), vehicle: saline 98 % of control

C[C@@]1(CO)CCc2c(c3ccccc3oc2=O)O1
inactive: [7] 94 % of control | [8] 92 % of control | [9] 90 % of control

Nc1n[n+](-c2ccc3ccccc3c2)no1
inactive: dose: 3.13 mg/kg/injection, schedule: Q01DX009 (ip), vehicle: water 98 % of control | dose: 6.25 mg/kg/injection, schedule: Q01DX009 (ip), vehicle: water 109 % of control | dose: 12.5 mg/kg/injection, schedule: Q01DX009 (ip), vehicle: water 120 % of control | dose: 25.0 mg/kg/injection, schedule: Q01DX009 (ip), vehicle: water 120 % of control

O=C(Nc1ccc([N+](=O)[O-])cc1)Nc1nncs1
inactive: dose: 12.5 mg/kg/injection, schedule: Q01DX009 (ip), vehicle: distilled water + Tween-80 100 % of control | dose: 25.0 mg/kg/injection, schedule: Q01DX009 (ip), vehicle: distilled water + Tween-80 107 % of control and 92 % of control | dose: 50.0 mg/kg/injection, schedule: Q01DX009 (ip), vehicle: distilled water + Tween-80 115 % of control and 119 % of control | dose: 100.0 mg/kg/injection, schedule: Q01DX009 (ip), vehicle: distilled water + Tween-80 119 % of control and 124 % of control | dose: 200.0 mg/kg/injection, schedule: Q01DX009 (ip), vehicle: distilled water + Tween-80 110 % of control

Oc1cc2c(cc1O)[C@H]1c3ccc(O)c(O)c3OC[C@@]1(O)C2
inactive: dose: 6.25 mg/kg/injection, schedule: Q01DX009 (ip), vehicle: saline 100 % of control | dose: 12.5 mg/kg/injection, schedule: Q01DX009 (ip), vehicle: saline 101 % of control | dose: 25.0 mg/kg/injection, schedule: Q01DX009 (ip), vehicle: saline 112 % of control | [18] 122 % of control | [19] 113 % of control | [20] 115 % of control

c1ccc2c(OCC3CO3)c3ccccc3nc2c1 (configuration not stated)
inactive: [5] 118 % of control | [6] 108 % of control | [14] 102 % of control

CC1C2CCN(C)C1Cc1ccc(O)cc12 (configuration not stated)
inactive: [5] 94 % of control | [6] 92 % of control | [14] 100 % of control

CCS/C(C#N)=C(/Br)c1ccc(OC)cc1
inactive: [2] 98 % of control | [3] 100 % of control

CCCCOc1cccc2c(NCCCNCCCNc3c4ccccc4nc4c(OCCCC)cccc34)c3ccccc3nc12
inactive: dose: 0.63 mg/kg/injection, schedule: Q01DX009 (ip), vehicle: other 114 % of control | dose: 1.25 mg/kg/injection, schedule: Q01DX009 (ip), vehicle: other 121 % of control | dose: 2.5 mg/kg/injection, schedule: Q01DX009 (ip), vehicle: other 120 % of control and 124 % of control | dose: 5.0 mg/kg/injection, schedule: Q01DX009 (ip), vehicle: other 100 % of control

Nc1ccc(Nc2ccncc2)cc1
inactive: dose: 6.25 mg/kg/injection, schedule: Q01DX009 (ip), vehicle: Klucel (hydroxypropylcellulose) (HPC) 100 % of control | dose: 12.5 mg/kg/injection, schedule: Q01DX009 (ip), vehicle: Klucel (hydroxypropylcellulose) (HPC) 95 % of control | [17] 100 % of control

CCNC(=O)C12CCC(C)(C(=O)O1)C2(C)C (configuration not stated)
inactive: dose: 60.0 mg/kg/injection, schedule: Q01DX005 (ip), vehicle: saline 93 % of control | dose: 120.0 mg/kg/injection, schedule: Q01DX005 (ip), vehicle: saline 98 % of control | dose: 240.0 mg/kg/injection, schedule: Q01DX005 (ip), vehicle: saline 101 % of control

CSc1nc(C)c(Br)c(Sc2nc(N)nc3nc[nH]c23)n1
inactive: [1] 104 % of control | [2] 113 % of control and 122 % of control | dose: 200.0 mg/kg/injection, schedule: Q04DX003 (ip), vehicle: saline with Tween-80 95 % of control

CN(C)c1cccc(NC(=O)CC#N)c1
inactive: [5] 93 % of control | [6] 93 % of control

CNC(=O)N(C)c1nc(-c2ccccc2)c(-c2ccccc2)n1Cc1ccc(Cl)cc1
inactive: dose: 50.0 mg/kg/injection, schedule: Q04DX002 (ip), vehicle: saline with Tween-80 94 % of control | [10] 99 % of control | [21] 92 % of control

CCOC(=O)C1(Br)CC2(C1)CC(Br)(C(=O)OCC)C2 (configuration not stated)
inactive: [10] 101 % of control | [21] 103 % of control | dose: 400.0 mg/kg/injection, schedule: Q04DX002 (ip), vehicle: saline with Tween-80 100 % of control
